{"source": "patent US8026218B2", "about": "“Bifunctional analgesic compounds for opioid receptor agonists and neurokinin-1 receptor antagonists” (The University of Arizona, priority 2006, dated 2011)", "key": {"[1]": {"target": "T1, human δ opioid receptors (hDOR) (Homo sapiens, UniProt P41143)", "T1 construct": "expressed in transfected cells; host or cells: HN9.10 neuroblastoma cell line, pCDNA3, neomycin-selected clones", "T1 sequence (P41143 whole entry)": "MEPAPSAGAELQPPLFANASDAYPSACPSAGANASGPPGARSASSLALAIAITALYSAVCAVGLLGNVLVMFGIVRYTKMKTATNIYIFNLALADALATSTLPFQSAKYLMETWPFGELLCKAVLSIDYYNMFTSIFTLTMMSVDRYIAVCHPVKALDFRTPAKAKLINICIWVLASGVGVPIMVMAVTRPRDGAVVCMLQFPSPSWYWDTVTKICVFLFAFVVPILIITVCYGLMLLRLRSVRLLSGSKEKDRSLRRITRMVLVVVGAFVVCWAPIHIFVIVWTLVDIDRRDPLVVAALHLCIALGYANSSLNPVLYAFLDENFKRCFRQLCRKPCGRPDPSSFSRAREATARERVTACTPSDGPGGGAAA", "assay": "Radioligand competition binding, [3H]DPDPE, hDOR membranes"}, "[2]": {"target": "T2, rat μ opioid receptors (rMOR) (Rattus norvegicus, UniProt P33535)", "T2 construct": "expressed in transfected cells; host or cells: HN9.10 neuroblastoma cell line, pCDNA3, neomycin-selected clones", "T2 sequence (P33535 whole entry)": "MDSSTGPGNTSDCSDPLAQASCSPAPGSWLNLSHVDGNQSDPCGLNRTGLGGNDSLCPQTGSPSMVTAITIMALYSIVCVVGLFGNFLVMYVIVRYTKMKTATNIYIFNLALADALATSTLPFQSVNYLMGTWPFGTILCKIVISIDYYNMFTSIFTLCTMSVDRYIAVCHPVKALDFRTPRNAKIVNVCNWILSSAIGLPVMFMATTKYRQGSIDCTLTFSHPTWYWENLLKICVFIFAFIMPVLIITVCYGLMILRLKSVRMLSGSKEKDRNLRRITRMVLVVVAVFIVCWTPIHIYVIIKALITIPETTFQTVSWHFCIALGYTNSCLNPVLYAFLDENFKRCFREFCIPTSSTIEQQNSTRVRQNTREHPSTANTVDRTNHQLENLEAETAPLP", "assay": "Radioligand competition binding, [3H]DAMGO, rMOR membranes"}, "[3]": {"target": "T3, rat NK1 (rNK1) receptor (Rattus norvegicus, UniProt P14600)", "T3 construct": "expressed in transfected cells; host or cells: CHO (rNK-1/CHO cell line from Dr. James Krause)", "T3 sequence (P14600 whole entry)": "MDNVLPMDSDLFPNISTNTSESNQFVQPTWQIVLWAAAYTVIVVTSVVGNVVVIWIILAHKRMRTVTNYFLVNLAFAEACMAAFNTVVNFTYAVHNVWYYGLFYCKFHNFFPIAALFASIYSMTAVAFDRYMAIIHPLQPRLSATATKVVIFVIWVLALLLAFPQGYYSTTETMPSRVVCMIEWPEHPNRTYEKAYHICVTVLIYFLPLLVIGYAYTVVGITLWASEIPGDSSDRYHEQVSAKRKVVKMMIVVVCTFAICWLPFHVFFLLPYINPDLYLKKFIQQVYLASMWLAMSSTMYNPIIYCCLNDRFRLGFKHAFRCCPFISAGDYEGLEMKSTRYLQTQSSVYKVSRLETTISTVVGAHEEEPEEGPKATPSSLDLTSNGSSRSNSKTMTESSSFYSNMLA", "assay": "Radioligand competition binding, [3H]substance P, rNK1/CHO membranes", "conditions": "for IC50: membranes from transfected CHO cells"}, "[4]": {"target": "T4, human NK1 receptor (hNK1) (Homo sapiens, UniProt P25103)", "T4 construct": "expressed in transfected cells", "T4 sequence (P25103 whole entry)": "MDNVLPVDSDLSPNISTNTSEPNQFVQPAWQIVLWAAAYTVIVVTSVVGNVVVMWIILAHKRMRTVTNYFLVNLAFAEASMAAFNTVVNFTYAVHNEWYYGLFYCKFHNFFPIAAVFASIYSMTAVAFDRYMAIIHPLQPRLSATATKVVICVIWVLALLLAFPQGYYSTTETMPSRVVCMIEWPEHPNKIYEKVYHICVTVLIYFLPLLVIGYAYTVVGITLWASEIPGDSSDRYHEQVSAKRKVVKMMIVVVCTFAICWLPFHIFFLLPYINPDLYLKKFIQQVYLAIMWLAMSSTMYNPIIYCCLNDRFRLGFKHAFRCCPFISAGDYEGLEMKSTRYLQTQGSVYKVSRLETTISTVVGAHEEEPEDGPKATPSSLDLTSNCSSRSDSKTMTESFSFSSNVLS", "assay": "Radioligand competition binding, [3H]-Substance P, hNK1"}, "[5]": {"target": "T1, human δ opioid receptors (hDOR)", "assay": "[35S]GTP-γ-S binding assay, hDOR", "type": "biochemical"}, "[6]": {"target": "T2, rat μ opioid receptors (rMOR)", "assay": "biochemical", "type": "biochemical"}, "[7]": {"target": "T5, δ opioid receptors (MVD) (Mus musculus, UniProt P32300)", "T5 construct": "from tissue; host or cells: mouse (ICR) isolated vas deferens", "T5 sequence (P32300 whole entry)": "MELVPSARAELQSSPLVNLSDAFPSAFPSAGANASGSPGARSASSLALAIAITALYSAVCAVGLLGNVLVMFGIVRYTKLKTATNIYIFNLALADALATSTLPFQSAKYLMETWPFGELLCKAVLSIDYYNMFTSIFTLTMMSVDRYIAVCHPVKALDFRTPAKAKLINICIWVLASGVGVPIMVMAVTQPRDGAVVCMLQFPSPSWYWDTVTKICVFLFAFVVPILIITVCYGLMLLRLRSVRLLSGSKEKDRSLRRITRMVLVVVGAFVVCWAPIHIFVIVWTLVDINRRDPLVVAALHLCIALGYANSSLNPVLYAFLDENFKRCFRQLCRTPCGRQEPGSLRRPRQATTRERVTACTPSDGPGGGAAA", "assay": "Mouse isolated vas deferens (MVD) assay, opioid agonist"}, "[8]": {"tested_on": "μ opioid receptors (GPI)", "assay": "Guinea pig isolated ileum (GPI) assay, opioid agonist;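 also: inhibition of electrically evoked contractions (0.1 Hz, 0.4 msec, supramaximal voltage) in organ baths at 37 °C, contraction height 3 min after each cumulative dose versus the 1 min before dosing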", "method": "Guinea Pig Isolated Ileum Assay. […] These tissues were tied to gold chains with suture silk and mounted between platinum wire electrodes in 20 mL organ baths at a tension of 1 g and bathed in oxygenated (95:5 O2:CO2) Kreb's bicarbonate buffer at 37° C. and stimulated electrically (0.1 Hz, 0.4 msec duration) at supramaximal voltage. Following an equilibration period, compounds were added cumulatively to the bath in volumes of 14-60 μL until maximum inhibition was reached. A baseline PL-017 was constructed to determine tissue integrity and allow calculation of antagonist activity before opioid analog testing began.\nFor opioid data analysis, percentage inhibition was calculated using the average tissue contraction height for 1 min preceding the addition of the agonist divided by the contraction height 3 min after exposure to the dose of agonist. […] IC50 and Emax estimates were determined by computerized nonlinear least-squares analysis (the pharmacological statistics package FlashCalc: Dr. Michael Ossipov, University of Arizona, Tucson, Ariz.). […] A50 values represent the mean of not less than 4 tissues. A50 and Emax estimates were determined by computerized nonlinear least-squares analysis (FlashCalc)."}, "[9]": {"target": "T6, Substance P receptors (guinea pig NK1) (Cavia porcellus, UniProt P30547)", "T6 construct": "from tissue; host or cells: guinea pig (Hartley) ileum LMMP, 1 μM naloxone present", "T6 sequence (P30547 whole entry)": "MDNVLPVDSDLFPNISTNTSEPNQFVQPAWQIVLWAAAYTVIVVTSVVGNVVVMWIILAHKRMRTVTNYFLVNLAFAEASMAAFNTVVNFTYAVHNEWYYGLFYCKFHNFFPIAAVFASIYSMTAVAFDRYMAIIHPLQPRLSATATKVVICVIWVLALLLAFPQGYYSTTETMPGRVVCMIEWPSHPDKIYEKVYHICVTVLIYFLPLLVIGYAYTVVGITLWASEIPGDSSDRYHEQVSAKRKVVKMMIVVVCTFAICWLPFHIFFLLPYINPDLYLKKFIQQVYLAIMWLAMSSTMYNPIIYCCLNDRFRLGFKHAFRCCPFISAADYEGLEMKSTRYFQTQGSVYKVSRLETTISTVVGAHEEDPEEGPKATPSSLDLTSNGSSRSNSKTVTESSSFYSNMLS", "assay": "Guinea pig isolated ileum (GPI) assay with substance P stimulation in presence of 1 μM naloxone", "conditions": "for Kb: Substance P antagonist, GPI, in the presence of 1 μM naloxone", "method": "Testing stopped at 1 mM concentrations of the test compound.\nAnalysis of GPI and MVD assays. For opioid data analysis, percentage inhibition was calculated using the average tissue contraction height for 1 min preceding the addition of the agonist divided by the contraction height 3 min after exposure to the dose of agonist. […] IC50 and Emax estimates were determined by computerized nonlinear least-squares analysis (the pharmacological statistics package FlashCalc: Dr. Michael Ossipov, University of Arizona, Tucson, Ariz.). […] A50 values represent the mean of not less than 4 tissues. A50 and Emax estimates were determined by computerized nonlinear least-squares analysis (FlashCalc)."}, "[10]": {"assay": "Brain distribution, in situ perfusion model", "type": "in vivo", "conditions": "FIG. 20"}, "[11]": {"assay": "Octanol/saline distribution (logD7.4)", "type": "physicochemical", "conditions": "0.05 N HEPES buffer in 0.1 N NaCl", "experimental": "HEPES buffer (0.05 M HEPES buffer in 0.1 M NaCl, pH 7.4, 500 μL) was added to 2 mg of compound and mixed with 500 μL of 1-octanol. The sample was shaken at r.t. for 12 h to allow equilibrating. The sample was centrifuged at 6500 rpm in a VanGuard V6500 (GlaxoSmithKline, Research Triangle Park, N.C.) for 15 min. The layers were separated and each layer was centrifuged once again. The compound concentrations of obtained layers were analyzed by HPLC (30-70% of acetonitrile containing 0.1% TFA within 20 min and up to 95% within additional 5 min, 1 mL/min, 230 nm, Vydac 218TP104 C-18 column). The logarithm of 1-octanol/saline distribution (logD7.4) was calculated as the ratio of compound concentration in the 1-octanol and saline phases.\nOctanol/saline distribution (logD7.4) (Yamamoto, 2007, J. Med. Chem., submitted). HEPES buffer (0.05 M HEPES buffer in 0.1 M NaCl, pH 7.4, 500 μL) was added to 2 mg of compound and mixed with 500 μL of 1-octanol. The sample was shaken at r.t. for 12 h to allow equilibrating. The sample was centrifuged at 6500 rpm in a VanGuard V6500 (GlaxoSmithKline, Research Triangle Park, N.C.) for 15 min. The layers were separated and each layer was centrifuged once again. The compound concentrations in the obtained layers were analyzed by HPLC (30-70% of acetonitrile containing 0.1% TFA within 20 min and up to 95% within additional 5 min, 1 mL/min, 230 nm, Vydac 218TP104 C-18 column). The logarithm of 1-octanol/saline distribution (logD7.4) was calculated as the ratio of compound concentration in the 1-octanol and saline phases."}, "[12]": {"assay": "FIG. 47", "experimental": "Table printed on a drawing sheet, FIG. 47\nThe patent's description of the figure: FIG. 47. Concentration of cyclic compounds in rat plasma after incubation at 37° C."}, "[13]": {"target": "DOR (Homo sapiens, UniProt P41143)", "sequence (P41143 whole entry)": "as the sequence (P41143 whole entry) above", "conditions": "previous studies; read-out: Affinity (Ki in nM), DOR; cited from earlier work"}, "[14]": {"target": "MOR (Homo sapiens, UniProt P35372)", "sequence (P35372 whole entry)": "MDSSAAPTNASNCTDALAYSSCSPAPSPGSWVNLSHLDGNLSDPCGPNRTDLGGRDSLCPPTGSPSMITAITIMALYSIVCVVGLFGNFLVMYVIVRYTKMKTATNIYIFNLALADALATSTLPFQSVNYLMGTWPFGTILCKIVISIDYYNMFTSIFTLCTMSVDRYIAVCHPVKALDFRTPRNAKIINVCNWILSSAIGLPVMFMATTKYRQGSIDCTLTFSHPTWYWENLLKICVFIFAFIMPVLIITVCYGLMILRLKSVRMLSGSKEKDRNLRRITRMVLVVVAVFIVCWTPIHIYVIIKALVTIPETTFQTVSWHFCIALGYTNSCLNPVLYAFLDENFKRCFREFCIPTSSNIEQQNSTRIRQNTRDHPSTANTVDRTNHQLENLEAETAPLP", "conditions": "previous studies; read-out: Affinity (Ki in nM), MOR; cited from earlier work"}, "[15]": {"target": "rNK1 (Rattus norvegicus, UniProt P14600)", "sequence (P14600 whole entry)": "as the sequence (P14600 whole entry) above", "conditions": "previous studies; read-out: Affinity (Ki in nM), rNK1; cited from earlier work"}, "[16]": {"conditions": "membranes from transfected HN9.10 cells"}, "[17]": {"conditions": "Table 39, read-out: GPI/LMMP opioid(mu) agonist (IC50; nM)"}, "[18]": {"conditions": "electrically stimulated isolated tissue, read-out: GPI (μ), IC50"}}, "note": "Like-named read-outs stand apart in the source and are kept apart here."}
{"compound": "CC(C)C[C@H](NC(=O)[C@@H]1CCCN1C(=O)[C@H](CC(C)C)NC(=O)[C@H](Cc1ccccc1)NC(=O)CNC(=O)[C@@H](C)NC(=O)[C@@H](N)Cc1ccc(O)cc1)C(=O)N[C@@H](Cc1c[nH]c2ccccc12)C(=O)OCc1cc(C(F)(F)F)cc(C(F)(F)F)c1", "note": "[TY004, H-Tyr-D-Ala-Gly-Phe-Leu-Pro-Leu-Trp-O-3,5-Bzl(CF3)2]", "values": [{"measurement": "Ki", "setting": "[1]", "result": 23.3, "unit": "nM"}, {"measurement": "δ selectivity over μ in binding assays", "setting": "[1]; Ki(μ)/Ki(δ)", "result": 4.7, "unit": "fold"}, {"measurement": "Ki", "setting": "[1]; Table 27, read-out: Affinity hDOR (Ki; nM)", "result": 5, "unit": "nM"}, {"measurement": "Ki", "setting": "[1]; Table 39, read-out: Affinity hDOR (Ki; nM)", "result": 5, "unit": "nM"}, {"measurement": "Ki(μ)/Ki(δ)", "setting": "[1]; binding, rMOR vs hDOR", "result": 4.7}, {"measurement": "LogIC50, hDOR, [3H]DPDPE", "setting": "[1]; [16]", "result": "−7.97 ± 0.07"}, {"measurement": "Ki", "setting": "[1]; read-out: Ki, hDOR, [3H]DPDPE", "result": 5, "unit": "nM"}, {"measurement": "Ki", "setting": "[2]", "result": 23.3, "unit": "nM"}, {"measurement": "LogIC50, rMOR, [3H]DAMGO", "setting": "[2]; [16]", "result": "−7.30 ± 0.07"}, {"measurement": "IC50", "setting": "[3]; IC50, rNK1, Substance P radioligand", "result": 20.9, "unit": "nM"}, {"measurement": "IC50", "setting": "[3]; LogIC50, rNK1, Substance P radioligand", "result": 20, "unit": "nM"}, {"measurement": "Ki", "setting": "[4]", "result": 0.016, "unit": "nM"}, {"measurement": "Ki(μ)/Ki(δ)", "setting": "[5]", "result": 3.4}, {"measurement": "LogEC50, hDOR, [35S]GTP-γ-S binding", "setting": "[5]", "result": "−8.09 ± 0.18"}, {"measurement": "δ selectivity in [35S]GTP-γ-S binding assays", "setting": "[5]", "result": 3.4, "unit": "fold"}, {"measurement": "EC50", "setting": "[5]; Table 27, read-out: GTP binding hDOR EC50", "result": 9.6, "unit": "nM"}, {"measurement": "Emax", "setting": "[5]; Table 27, read-out: GTP binding hDOR Emax (%)", "result": 42.5, "unit": "%"}, {"measurement": "EC50", "setting": "[5]; Table 39, read-out: GTP binding hDOR EC50", "result": 9.6, "unit": "nM"}, {"measurement": "Emax", "setting": "[5]; Table 39, read-out: GTP binding hDOR Emax", "result": 42.5, "unit": "%"}, {"measurement": "Emax", "setting": "[5]; net total bound/basal binding × 100, read-out: Emax, hDOR, [35S]GTP-γ-S binding", "result": 44, "unit": "%"}, {"measurement": "EC50", "setting": "[5]; read-out: EC50, hDOR, [35S]GTP-γ-S binding", "result": 9.6, "unit": "nM"}, {"measurement": "LogEC50, rMOR, [35S]GTP-γ-S binding", "setting": "[6]", "result": "−7.48 ± 0.16"}, {"measurement": "EC50", "setting": "[6]; GTP binding rMOR EC50", "result": 39.8, "unit": "nM"}, {"measurement": "EC50", "setting": "[6]; read-out: EC50, rMOR, [35S]GTP-γ-S binding", "result": 33, "unit": "nM"}, {"measurement": "Emax", "setting": "[6]; read-out: Emax, rMOR, [35S]GTP-γ-S binding", "result": 46, "unit": "%"}, {"measurement": "Emax", "setting": "[6]; read-out: GTP binding rMOR Emax", "result": 44.5, "unit": "%"}, {"measurement": "Emax", "setting": "[6]; read-out: GTP binding rMOR Emax (%)", "result": 44.5, "unit": "%"}, {"measurement": "IC50", "setting": "[7]", "result": 101, "unit": "nM"}, {"measurement": "δ selectivity in MVD and GPI assays", "setting": "[7]", "result": 3.4, "unit": "fold"}, {"measurement": "IC50(MVD)/IC50(GPI)", "setting": "[7]; Table 4", "result": 3.4}, {"measurement": "IC50", "setting": "[7]; electrically stimulated isolated tissue, read-out: MVD (δ), IC50", "result": "101 ± 25", "unit": "nM"}, {"measurement": "IC50", "setting": "[8]; Table 28, read-out: GPI/LMMP Opioid(m) Agonist (IC50; nM)", "result": 341, "unit": "nM"}, {"measurement": "IC50", "setting": "[8]; [17]", "result": 341, "unit": "nM"}, {"measurement": "IC50", "setting": "[8]; [18]", "result": "341 ± 71", "unit": "nM"}, {"measurement": "IC50", "setting": "[9]", "result": 19.4, "unit": "nM"}, {"measurement": "Kb", "setting": "[9]; Ke", "result": "19.4 ± 5", "unit": "nM"}, {"measurement": "GPI/LMMP SP Agonist (IC50; nM)", "setting": "[9]; Table 39, concentration not given", "result": "none"}, {"measurement": "activation at 1 µM", "setting": "[9]; read-out: Substance P GPI agonist (A50), at 1 μM, contraction relative to initial muscle contraction with KCl", "result": 0, "unit": "%"}, {"measurement": "blood brain barrier penetration", "setting": "[10]", "result": "penetrate blood brain barrier"}]}
{"compound": "CSCC[C@H](NC(=O)[C@H](Cc1ccccc1)NC(=O)CNC(=O)[C@@H](C)NC(=O)[C@@H](N)Cc1ccc(O)cc1)C(=O)N1CCC[C@H]1C(=O)N[C@@H](CC(C)C)C(=O)N[C@@H](Cc1c[nH]c2ccccc12)C(=O)NCc1ccccc1", "note": "[TY025, H-Tyr-D-Ala-Gly-Phe-Met-Pro-Leu-Trp-NH-Bzl]", "values": [{"measurement": "Ki", "setting": "[3]; Table 39, read-out: Affinity rNK1 (Ki; nM)", "result": 696, "unit": "nM"}, {"measurement": "species difference between affinities at rNK1 and hNK1", "setting": "[4]; Ki rNK1 vs Ki hNK1", "result": 220, "unit": "fold"}, {"measurement": "LogEC50, hDOR", "setting": "[5]; Table 14, logarithm of EC50 (negative), HN9.10 cell", "result": "−8.6 ± 0.13"}, {"measurement": "IC50", "setting": "[8]; Table 30, read-out: GPI/LMMP Opioid(m) Agonist (IC50; nM)", "result": 61.1, "unit": "nM"}, {"measurement": "IC50", "setting": "[8]; [17]", "result": 61.1, "unit": "nM"}, {"measurement": "IC50", "setting": "[8]; [18]", "result": 61, "unit": "nM"}, {"measurement": "Kb", "setting": "[9]; Ke (nM), Table 16", "result": "9.9 ± 2.8", "unit": "nM"}, {"measurement": "logD7.4", "setting": "[11]", "result": 3.6}, {"measurement": "blood brain barrier penetration", "setting": "[10]", "result": "penetrate blood brain barrier"}]}
{"compound": "CC(C)C[C@H](NC(=O)[C@@H]1CCCN1C(=O)[C@H]1NC(=O)[C@H](Cc2ccccc2)NC(=O)CNC(=O)[C@H](NC(=O)[C@@H](N)Cc2ccc(O)cc2)C(C)(C)SSC1(C)C)C(=O)N[C@@H](Cc1c[nH]c2ccccc12)C(=O)NCc1cc(C(F)(F)F)cc(C(F)(F)F)c1", "note": "[TY046]", "values": [{"measurement": "Ki", "setting": "[2]", "result": 2330, "unit": "nM"}, {"measurement": "Ki", "setting": "[4]", "result": 0.0053, "unit": "nM"}, {"measurement": "Emax", "setting": "[5]; read-out: GTP binding hDOR Emax", "result": 15, "unit": "%"}, {"measurement": "Emax", "setting": "[5]; read-out: GTP binding hDOR Emax (%)", "result": 15, "unit": "%"}, {"measurement": "T1/2", "setting": "[12]", "result": 8.0, "unit": "h"}]}
{"compound": "HTyrDAlaDPhePheDTrpLeuMetNH2 [JSOH9]", "values": [{"measurement": "Ki", "setting": "[13]", "result": 0.72, "unit": "nM"}, {"measurement": "Ki", "setting": "[14]", "result": 606, "unit": "nM"}, {"measurement": "Ki", "setting": "[15]", "result": 2940, "unit": "nM"}]}
{"compound": "HTyrDAlaDTrpPheDTrpLeuLeuNH2 [JSOH11]", "values": [{"measurement": "Ki", "setting": "[13]", "result": 16.5, "unit": "nM"}, {"measurement": "Ki", "setting": "[14]", "result": 164, "unit": "nM"}, {"measurement": "Ki", "setting": "[15]", "result": 7320, "unit": "nM"}]}
